In patent US12594276B2, “Inhibitors of human immunodeficiency virus replication” (ViiV Healthcare UK (No.5) Limited, priority 2024, dated 2026):

Columns and labels:
[1] = test system: recombinant NL4-3 virus (nef section replaced with Renilla luciferase gene) in MT-2 cells; assay: HIV cell culture assay (antiviral activity, luciferase readout); type: cell-based; settings: Renilla, NL43, MT-2 cells infected for 4-5 days with recombinant NL4-3 Renilla luciferase virus
Procedure, shortened: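 Compound activity was measured as reduction of luciferase in MT-2 cells infected for 4-5 days with serially diluted compound present. EC50 values were calculated with the median effect equation.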

[2] = Compound cytotoxicity, XTT-based colorimetric assay; type: cell-based; settings: human; uninfected MT2 cells, day 4, XTT; read-out: CC50
Procedure, shortened: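 Follows the antiviral assay procedure, but with uninfected MT2 cells. On day 4, cell viability is measured by XTT-based colorimetry, giving CC50 values.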

CC(C)S(=O)(=O)N1CCN(CCn2nc(NS(C)(=O)=O)c3c(Cl)ccc(-n4c([C@H](Cc5cc(F)cc(F)c5)NC(=O)Cn5nc(C(F)F)c6c5C(F)(F)[C@@H]5C[C@H]65)nc5nc(C6CCC(F)(F)CC6)ccc5c4=O)c32)CC1 (atropisomer, axis not shown; (P)) [Example 195, N-[(1S)-1-[(3P)-3-(4-chloro-3-methanesulfonamido-1-{2-[4-(propane-2-sulfonyl)piperazin-1-yl]ethyl}-1H-indazol-7-yl)-7-(4,4-difluorocyclohexyl)-4-oxo-3H,4H-pyrido[2,3-d]pyrimidin-2-yl]-2-(3,5-difluorophenyl)ethyl]-2-[(2S,4R)-9-(difluoromethyl)-5,5-difluoro-7,8-diazatricyclo[4.3.0.0^2,^4]nona-1(6),8-dien-7-yl]acetamide]
EC50 [1]: 37 pM | CC50 at 4 days [2]: > 50000 pM

CS(=O)(=O)Nc1nn(CCN2CC[C@H](F)C2)c2c(-n3c([C@H](Cc4cc(F)cc(F)c4)NC(=O)Cn4nc(C(F)F)c5c4C(F)(F)[C@@H]4C[C@H]54)nc4nc(C5CCC(F)(F)CC5)ccc4c3=O)ccc(Cl)c12 (atropisomer, axis not shown; (P)) [Example 207, N-[(1S)-1-[(3P)-3-(4-chloro-1-{2-[(3S)-3-fluoropyrrolidin-1-yl]ethyl}-3-methanesulfonamido-1H-indazol-7-yl)-7-(4,4-difluorocyclohexyl)-4-oxo-3H,4H-pyrido[2,3-d]pyrimidin-2-yl]-2-(3,5-difluorophenyl)ethyl]-2-[(2S,4R)-9-(difluoromethyl)-5,5-difluoro-7,8-diazatricyclo[4.3.0.0^2,^4]nona-1(6),8-dien-7-yl]acetamide]
EC50 [1]: 13 pM | CC50 at 4 days [2]: > 50000 pM

CS(=O)(=O)Nc1nn(CCN2CC[C@@H](F)C2)c2c(-n3c([C@H](Cc4cc(F)cc(F)c4)NC(=O)Cn4nc(C(F)F)c5c4C(F)(F)[C@@H]4C[C@H]54)nc4nc(C5CCC(F)(F)CC5)ccc4c3=O)ccc(Cl)c12 (atropisomer, axis not shown; (P)) [Example 208, N-[(1S)-1-[(3P)-3-(4-chloro-1-{2-[(3R)-3-fluoropyrrolidin-1-yl]ethyl}-3-methanesulfonamido-1H-indazol-7-yl)-7-(4,4-difluorocyclohexyl)-4-oxo-3H,4H-pyrido[2,3-d]pyrimidin-2-yl]-2-(3,5-difluorophenyl)ethyl]-2-[(2S,4R)-9-(difluoromethyl)-5,5-difluoro-7,8-diazatricyclo[4.3.0.0^2,^4]nona-1(6),8-dien-7-yl]acetamide]
EC50 [1]: 9 pM | CC50 at 4 days [2]: > 50000 pM

Cc1cc(C2CCC(F)(F)CC2)nc2nc([C@H](Cc3cc(F)cc(F)c3)NC(=O)Cn3nc(C(F)F)c4c3C(F)(F)[C@@H]3C[C@H]43)n(-c3ccc(Cl)c4c(NS(C)(=O)=O)nn(CCN5CC(F)(F)C5)c34)c(=O)c12 (atropisomer, axis not shown; (P)) [Example 229, N-[(1S)-1-[(3P)-3-{4-chloro-1-[2-(3,3-difluoroazetidin-1-yl)ethyl]-3-methanesulfonamido-1H-indazol-7-yl}-7-(4,4-difluorocyclohexyl)-5-methyl-4-oxo-3H,4H-pyrido[2,3-d]pyrimidin-2-yl]-2-(3,5-difluorophenyl)ethyl]-2-[(2S,4R)-9-(difluoromethyl)-5,5-difluoro-7,8-diazatricyclo[4.3.0.0^2,4]nona-1(6),8-dien-7-yl]acetamide]
EC50 [1]: 13 pM | CC50 at 4 days [2]: > 50000 pM

Cc1cc(C2CCC(F)(F)CC2)nc2nc([C@H](Cc3cc(F)cc(F)c3)NC(=O)Cn3nc(C4CC4)c4c3C[C@@H]3C[C@H]43)n(-c3ccc(Cl)c4c(NS(C)(=O)=O)nn(CCN5C[C@@H](C)O[C@@H](C)C5)c34)c(=O)c12 (atropisomer, axis not shown; (P)) [Example 230, N-[(1S)-1-[(3P)-3-(4-chloro-1-{2-[(2R,6S)-2,6-dimethylmorpholin-4-yl]ethyl}-3-methanesulfonamido-1H-indazol-7-yl)-7-(4,4-difluorocyclohexyl)-5-methyl-4-oxo-3H,4H-pyrido[2,3-d]pyrimidin-2-yl]-2-(3,5-difluorophenyl)ethyl]-2-[(2S,4S)-9-cyclopropyl-7,8-diazatricyclo[4.3.0.0^2,^4]nona-1(6),8-dien-7-yl]acetamide]
EC50 [1]: 6 pM | CC50 at 4 days [2]: > 50000 pM

Cc1cc(C2CCC(F)(F)CC2)nc2nc([C@H](Cc3cc(F)cc(F)c3)NC(=O)Cn3nc(C(F)F)c4c3C(F)(F)[C@@H]3C[C@H]43)n(-c3ccc(Cl)c4c(NS(C)(=O)=O)nn(CCN5CCC(F)(F)C5)c34)c(=O)c12 (atropisomer, axis not shown; (P)) [Example 231, N-[(1S)-1-[(3P)-3-{4-chloro-1-[2-(3,3-difluoropyrrolidin-1-yl)ethyl]-3-methanesulfonamido-1H-indazol-7-yl}-7-(4,4-difluorocyclohexyl)-5-methyl-4-oxo-3H,4H-pyrido[2,3-d]pyrimidin-2-yl]-2-(3,5-difluorophenyl)ethyl]-2-[(2S,4R)-9-(difluoromethyl)-5,5-difluoro-7,8-diazatricyclo[4.3.0.0^2,^4]nona-1(6),8-dien-7-yl]acetamide]
EC50 [1]: 10 pM | CC50 at 4 days [2]: > 50000 pM

Cc1cc(C2CCC(F)(F)CC2)nc2nc([C@H](Cc3cc(F)cc(F)c3)NC(=O)Cn3nc(C4CC4)c4c3C[C@@H]3C[C@H]43)n(-c3ccc(Cl)c4c(NS(C)(=O)=O)nn(CCN5CCC(F)(F)C5)c34)c(=O)c12 (atropisomer, axis not shown; (P)) [Example 232, N-[(1S)-1-[(3P)-3-{4-chloro-1-[2-(3,3-difluoropyrrolidin-1-yl)ethyl]-3-methanesulfonamido-1H-indazol-7-yl}-7-(4,4-difluorocyclohexyl)-5-methyl-4-oxo-3H,4H-pyrido[2,3-d]pyrimidin-2-yl]-2-(3,5-difluorophenyl)ethyl]-2-[(2S,4S)-9-cyclopropyl-7,8-diazatricyclo[4.3.0.0^2,^4]nona-1(6),8-dien-7-yl]acetamide]
EC50 [1]: 9 pM | CC50 at 4 days [2]: > 50000 pM

COCCOCCn1nc(NS(C)(=O)=O)c2c(Cl)ccc(-n3c([C@H](Cc4cc(F)cc(F)c4)NC(=O)Cn4nc(C5CC5)c5c4C[C@@H]4C[C@H]54)nc4nc(C5CCC(F)(F)CC5)ccc4c3=O)c21 (atropisomer, axis not shown; (P)) [Example 237, N-[(1S)-1-[(3P)-3-{4-chloro-3-methanesulfonamido-1-[2-(2-methoxyethoxy)ethyl]-1H-indazol-7-yl}-7-(4,4-difluorocyclohexyl)-4-oxo-3H,4H-pyrido[2,3-d]pyrimidin-2-yl]-2-(3,5-difluorophenyl)ethyl]-2-[(2S,4S)-9-cyclopropyl-7,8-diazatricyclo[4.3.0.0^2,^4]nona-1(6),8-dien-7-yl]acetamide]
EC50 [1]: 6 pM | CC50 at 4 days [2]: > 50000 pM

CS(=O)(=O)Nc1nn(CCN2CCC(F)(F)CC2)c2c(-n3c([C@H](Cc4cc(F)cc(F)c4)NC(=O)Cn4nc(C5CC5)c5c4C[C@@H]4C[C@H]54)nc4nc(C5CCC(F)(F)CC5)c(F)cc4c3=O)ccc(Cl)c12 (atropisomer, axis not shown; (P)) [Example 239, N-[(1S)-1-[(3P)-3-{4-chloro-1-[2-(4,4-difluoropiperidin-1-yl)ethyl]-3-methanesulfonamido-1H-indazol-7-yl}-7-(4,4-difluorocyclohexyl)-6-fluoro-4-oxo-3H,4H-pyrido[2,3-d]pyrimidin-2-yl]-2-(3,5-difluorophenyl)ethyl]-2-[(2S,4S)-9-cyclopropyl-7,8-diazatricyclo[4.3.0.0^2,^4]nona-1(6),8-dien-7-yl]acetamide]
EC50 [1]: 21 pM | CC50 at 4 days [2]: > 50000 pM
